We go through one compound from US7429396B2, “Antifungal composition, its fungicidal effect on pathogenic dermatophytes, and process for inhibiting growth of fungi” (Bio-Botanica, Inc., priority 2003, dated 2008).

In assay [1] the test system is S. typhimurium ATCC 14028. The assay can be described thus: Agar Dilution susceptibility method (Example 5). The class given is cell-based, Salmonella typhimurium. Here is the method:
(§1) The Agar Dilution susceptibility method was used to test the effectiveness of the antimicrobial composition of Example 1. The organisms used were S. aureus ATCC 29213, E. coli ATCC 25922, S. typhimurium ATCC 14028, K. pneumoniae ATCC 10031, P. aeruginosa ATCC 27853, C. albicans ATCC 10231, and M. smegmatis ATCC 14468. The organisms were maintained on Tryptic Soy Agar (TSA) slants. For each week, the organisms were cultured in 10 ml of Tryptic Soy Broth (TSB). After incubation at 37° C. for 17 hours (48 hours for M. smegmatis), the organism suspensions were diluted with 10 ml of sterile saline as shown in Table 4. The mold Aspergillus niger was sustained on a Sabouraud Dextrose Agar slant. The sample was then cultured in 10 ml of Tryptic Soy Broth and incubated for 7 days at 22° C. The mold was then diluted in 0.1% Tween 80 in saline. The diluted bacteria and yeast organisms were then inoculated onto the prepared sample plates with a 1 μl loop. The mold Aspergillus niger was added to prepared sample tubes with a 100 μl pipette.
(§2) Phenyloxyethanol (PE), phenylethyl alcohol (PEA) and methyl/propylparabens (MP) in a ratio of 5:4 were initially screened at their commonly recommended effective concentrations of 0.3% v/v (3 μl/ml); 1% v/v (10 μl/ml); and 0.18% w/v (1 mg methyl and 0.8 mg propylparaben/ml), respectively. The antimicrobial agent was used at an initial concentration of 0.15% v/v (1.5 μl/ml).
(§3) The sample plates for the bacteria and yeast were prepared as follows: • Prepare 10 ml tubes of TSA and allow to cool to 50° C., • Add the calculated amount of the preservative or antimicrobial agent to 100 μl dimethylsulfoxide (DMSO) to achieve the specified concentration per ml TSA when 100 μl of the DMSO solution are added to a test tube containing 10 ml of TSA, • Vortex to homogenize the mixture in TSA, • Pour TSA and the preservative or antimicrobial agent into a properly labeled Petri dish, • Allow to cool overnight at room temperature.
(§4) The prepared sample plates were divided into seven sections and the plates labeled according to the preservative or antimicrobial agent. Each section was labeled according to the microorganism to be applied to each section. The diluted organism suspensions were inoculated onto their appropriate section with a 1 μl loop, streaking radially from the center to the outer edge of the plate. A positive control plate was prepared without a preservative or antimicrobial agent of Example 1. The plates were then incubated at 37° C. for 48 hours, recording the results at 24 and 48 hours.
Growth (G) was noted when there was full growth visible and the organism was not affected. […]
In this example and the tables, the amount of the antimicrobial agent is expressed in terms of the volume of antimicrobial sample. […]
A general note: In agar dilution the substance is mixed into plates at graded concentrations.

Assay [2] deals with Aspergillus niger ATCC 16404. In words: Macro-dilution broth susceptibility method (Example 6). The class given is cell-based. Here is the method: The mold Aspergillus niger ATCC 16404 was selected for the antifungal testing and maintained on Sabouraud Dextrose Agar. Aspergillus niger is a mold that commonly causes opportunistic infections in humans. Spores are prevalent in soil and on decaying organic matter. Aspergillus niger is also a common cause of contamination in products. The organism was cultured in 10 ml of Tryptic Soy Broth for 7 days at 22° C. After incubation, 1 ml of mold culture was added to 10 ml of 0.1% Tween 80 solution in sterile saline to achieve a spore concentration of 0.5 McFarland (1×10^8 spores/ml). This concentration was determined by visual comparison to a 0.5 McFarland standard. […]
The final concentration of mold spores in each sample was 1×10^4-1×10^5 spores/ml. The prepared tubes of TSB were incubated at 37° C. for 5 days, and the results recorded at 3 and 5 days. […]
The results were scored in relation to the growth present in the negative control tube. […] Partial activity (P) was recorded when the sample tube of TSB was less turbid than the control tube, and now growth (I) was recorded when there was total inhibition and the broth in the tube appeared clear. When a result of (I) was scored, the MIC was established by performing the appropriate dilutions.

Another assay deals with M. smegmatis ATCC 14468. The assay can be described thus: Agar Dilution susceptibility method (Example 5). The class given is cell-based, Mycobacterium smegmatis. Here is the method:
as §1, §2, §3, §4
The results for the bacteria and yeast were scored in relation to the growth present on the positive control plate. Growth (G) was noted when there was full growth visible and the organism was not affected. […]

As for `OCCc1ccccc1` [Phenylethyl Alcohol], the “Minimum Inhibitory Concentration (MIC) (sample/ml of agar or broth)” value in assay [1] came out at 5.0 μl/ml; in the assay on M. smegmatis ATCC 14468, 2.5 μl/ml. The growth score result (in assay [1] (3.0 μl/ml); in assay [1] (5.0 μl/ml); in assay [1] (6.0 μl/ml); in assay [2] (2.5 μl/ml); in the assay with M. smegmatis ATCC 14468 (3.0 μl/ml); with M. smegmatis ATCC 14468 (5.0 μl/ml)) was “I” each time. For the same compound, the growth score result in the assay on M. smegmatis ATCC 14468 (6.0 μl/ml) was “I”. Also, the “Minimum Inhibitory Concentration (MIC)” value in assay [2] (macro-dilution broth, Example 6) is listed as 2.5 μl/ml.
